Assay results reported in patent US7709482B2, “Polycyclic heteroaryl substituted triazoles useful as Axl inhibitors” (Rigel Pharmaceuticals, Inc., priority 2006, dated 2010).

Biological target: T1, Axl (Homo sapiens, UniProt P30530)
T1 construct: endogenous in cells; host or cells: HeLa cells
T1 sequence (P30530 26-894): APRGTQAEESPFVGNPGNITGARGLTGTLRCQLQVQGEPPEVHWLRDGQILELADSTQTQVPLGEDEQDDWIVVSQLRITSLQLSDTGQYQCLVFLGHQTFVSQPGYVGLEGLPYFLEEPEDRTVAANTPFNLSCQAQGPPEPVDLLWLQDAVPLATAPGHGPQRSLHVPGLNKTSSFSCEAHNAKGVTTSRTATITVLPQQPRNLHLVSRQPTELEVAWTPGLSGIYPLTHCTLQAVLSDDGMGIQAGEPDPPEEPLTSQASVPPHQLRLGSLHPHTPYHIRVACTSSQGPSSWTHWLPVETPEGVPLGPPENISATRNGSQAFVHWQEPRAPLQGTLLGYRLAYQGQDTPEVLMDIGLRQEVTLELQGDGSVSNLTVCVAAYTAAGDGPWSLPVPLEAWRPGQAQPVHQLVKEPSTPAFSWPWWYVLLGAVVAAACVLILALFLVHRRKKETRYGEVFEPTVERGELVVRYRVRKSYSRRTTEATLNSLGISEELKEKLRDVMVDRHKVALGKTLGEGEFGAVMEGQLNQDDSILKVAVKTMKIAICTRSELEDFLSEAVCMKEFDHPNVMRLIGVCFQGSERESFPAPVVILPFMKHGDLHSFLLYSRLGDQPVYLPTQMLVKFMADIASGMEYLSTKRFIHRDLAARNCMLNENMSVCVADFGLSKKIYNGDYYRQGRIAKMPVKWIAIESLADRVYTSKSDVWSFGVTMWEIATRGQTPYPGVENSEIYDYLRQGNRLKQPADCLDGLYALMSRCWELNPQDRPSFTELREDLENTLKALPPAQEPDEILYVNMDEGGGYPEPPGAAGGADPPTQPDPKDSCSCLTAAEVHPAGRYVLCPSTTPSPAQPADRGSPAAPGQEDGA
Assay: Phospho-Akt In-Cell Western Assay (inhibition of Axl activity after Axl-antibody cross-linking)
Type: cell-based
Conditions: inhibition of Axl activity; Table 1, compounds of formula (Ia); read-out: IC50
Outline: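 Phospho-Akt was detected in formaldehyde-fixed cells by in-cell immunostaining with HRP chemiluminescence. Before fixation, HeLa cells kept 24 h in low-serum medium containing 500 ng/mL Axl/Fc received compound for 1 h at 37 °C, followed by 5-min Axl activation through antibody clustering.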

IC50	SMILES
< 1000 nM	Nc1nc(Nc2ccc(N3CCN4CCCCC4C3)c(F)c2)nn1-c1cc2c(nn1)-c1ccccc1SCC2 (stereo not shown) [Compound 129, 1-(6,7-dihydro-5H-benzo[2,3]thiepino[4,5-c]pyridazin-3-yl)-N^3-(3-fluoro-4-(octahydro-1H-pyrido[1,2-a]pyrazin-2-yl)phenyl)-1H-1,2,4-triazole-3,5-diamine]
1000 to 10000 nM	CCN(CC)CC1CCCN1c1ccc(Nc2nc(N)n(-c3cc4c(nn3)-c3ccccc3CCC4)n2)cn1 (stereo not shown) [Compound 130, 1-(6,7-dihydro-5H-benzo[6,7]cyclohepta[1,2-c]pyridazin-3-yl)-N^3-(6-(2-diethylaminomethyl)pyrrolidin-1-ylpyridin-3-yl)-1H-1,2,4-triazole-3,5-diamine]
1000 to 10000 nM	CN(C)CCN1CCN(C(=O)c2cc3cc(Nc4nc(N)n(-c5cc6c(nn5)-c5ccccc5SCC6)n4)ccc3s2)CC1 [Compound 131, 1-(6,7-dihydro-5H-benzo[2,3]thiepino[4,5-c]pyridazin-3-yl)-N^3-(2-(1-(4-(2-(dimethylamino)ethyl)-piperazin-1-yl)oxomethyl)benzo[b]thio-phen-5-yl)-1H-1,2,4-triazole-3,5-diamine]
< 1000 nM	Nc1nc(Nc2ccc(N3CCC(N4CCCC4)C3)c(F)c2)nn1-c1cc2c(nn1)-c1ccccc1CCC2 (stereo not shown) [Compound 132, 1-(6,7-dihydro-5H-benzo[6,7]cyclohepta[1,2-c]pyridazin-3-yl)-N^3-(3-fluoro-(4-(3-pyrrolidin-1-yl)pyrrolidin-1-yl)phenyl)-1H-1,2,4-triazole-3,5-diamine]
< 1000 nM	CCN(CC)C1CCN(c2ccc(Nc3nc(N)n(-c4cc5c(nn4)-c4ccccc4CCC5)n3)cn2)C1 (stereo not shown) [Compound 133, 1-(6,7-dihydro-5H-benzo[6,7]cyclohepta[1,2-c]pyridazin-3-yl)-N^3-(6-(3-diethylaminopyrrolidin-1-yl)pyridin-3-yl)-1H-1,2,4-triazole-3,5-diamine]
< 1000 nM	CN1CCN(C2CCN(C/C=C/c3ccc(Nc4nc(N)n(-c5cc6c(nn5)-c5ccccc5CCC6)n4)cn3)CC2)CC1 [Compound 135, 1-(6,7-dihydro-5H-benzo[6,7]cyclohepta[1,2-c]pyridazin-3-yl)-N^3-(6-(3-(4-(N-methylpiperazin-4-yl)piperidin-1-yl)-(E)-propenyl)pyridin-3-yl)-1H-1,2,4-triazole-3,5-diamine]
< 1000 nM	Cc1cc(Nc2nc(N)n(-c3cc4c(nn3)-c3ccccc3CCC4)n2)cnc1N1CCC(N2CCCC2)CC1 [Compound 136, 1-(6,7-dihydro-5H-benzo[6,7]cyclohepta[1,2-c]pyridazin-3-yl)-N^3-(6-(4-(pyrrolidin-1-yl)piperidin-1-yl)-5-methylpyridin-3-yl)-1H-1,2,4-triazole-3,5-diamine]
< 1000 nM	Nc1nc(Nc2ccc(C3NCC4CNCC43)c(F)c2)nn1-c1cc2c(nn1)-c1ccccc1CCC2 (stereo not shown) [Compound 137, 1-(6,7-dihydro-5H-benzo[6,7]cyclohepta[1,2-c]pyridazin-3-yl)-N^3-(3-fluoro-4-(octahydropyrrolo[3,4-c]pyrrolyl)phenyl)-1H-1,2,4-triazole-3,5-diamine]
< 1000 nM	Nc1nc(Nc2ccc(/C=C/CN3CCCCC3)nc2)nn1-c1cc2c(nn1)-c1ccccc1CCC2 [Compound 138, 1-(6,7-dihydro-5H-benzo[6,7]cyclohepta[1,2-c]pyridazin-3-yl)-N^3-(6-(3-piperidin-1-yl-(E)-propenyl)pyridin-3-yl)-1H-1,2,4-triazole-3,5-diamine]
> 20000 nM	Nc1nc(Nc2cnc3c(c2)CN(C2CCCC2)CCC3)nn1-c1cc2c(nn1)-c1ccccc1CCC2 [Compound 139, 1-(6,7-dihydro-5H-benzo[6,7]cyclohepta[1,2-c]pyridazin-3-yl)-N^3-(6-cyclopentyl-6,7,8,9-tetrahydro-5H-pyrido[3,2-c]azepin-3-yl)-1H-1,2,4-triazole-3,5-diamine]
< 1000 nM	Nc1nc(Nc2ccc(N3CCCN(C4CC5CCC4C5)CC3)nc2)nn1-c1cc2c(nn1)-c1ccccc1CCC2 (stereo not shown) [Compound 140, 1-(6,7-dihydro-5H-benzo[6,7]cyclohepta[1,2-c]pyridazin-3-yl)-N^3-(6-(4-(bicyclo[2.2.1]heptan-2-yl)-1,4-diazepan-1-yl)pyridin-3-yl)-1H-1,2,4-triazole-3,5-diamine]
1000 to 10000 nM	Nc1nc(Nc2ccc(/C=C/CN3CCC(N4CCCC4)CC3)nc2)nn1-c1cc2c(nn1)-c1ccccc1CCC2 [Compound 141, 1-(6,7-dihydro-5H-benzo[6,7]cyclohepta[1,2-c]pyridazin-3-yl)-N^3-(6-(3-(4-(pyrrolidin-1-yl)piperidin-1-yl)-(E)-propenyl)pyridin-3-yl)-1H-1,2,4-triazole-3,5-diamine]
< 1000 nM	Nc1nc(Nc2ccc(N3CCC(N4CCCC4)CC3)c(F)c2)nn1-c1cc2c(nn1)-c1ccc(Cl)cc1CCC2 [Compound 143, 1-(6,7-dihydro-9-chloro-5H-benzo[6,7]cyclohepta[1,2-c]pyridazin-3-yl)-N^3-(3-fluoro-4-(4-pyrrolidin-1-ylpiperidin-1-yl)phenyl)-1H-1,2,4-triazole-3,5-diamine]
1000 to 10000 nM	CN1CCN(C2CCN(c3ccc(Nc4nc(N)n(-c5cc6c(nn5)-c5ccc(Cl)cc5CCC6)n4)cc3F)CC2)CC1 [Compound 144, 1-(6,7-dihydro-9-chloro-5H-benzo[6,7]cyclohepta[1,2-c]pyridazin-3-yl)-N^3-(3-fluoro-4-(4-(N-methylpiperazin-1-yl)piperidin-1-yl)phenyl)-1H-1,2,4-triazole-3,5-diamine]
< 1000 nM	Nc1nc(Nc2ccc(/C=C/CN3CCC(N4CCCCC4)CC3)nc2)nn1-c1cc2c(nn1)-c1ccccc1CCC2 [Compound 145, 1-(6,7-dihydro-5H-benzo[6,7]cyclohepta[1,2-c]pyridazin-3-yl)-N^3-(6-(3-(4-(piperidin-1-yl)piperidin-1-yl)-(E)-propenyl)pyridin-3-yl)-1H-1,2,4-triazole-3,5-diamine]
< 1000 nM	CN(C)C1CCN(C/C=C/c2ccc(Nc3nc(N)n(-c4cc5c(nn4)-c4ccccc4CCC5)n3)cn2)CC1 [Compound 146, 1-(6,7-dihydro-5H-benzo[6,7]cyclohepta[1,2-c]pyridazin-3-yl)-N^3-(6-(3-(4-dimethylaminopiperidin-1-yl)-(E)-propenyl)pyridin-3-yl)-1H-1,2,4-triazole-3,5-diamine]
< 1000 nM	Nc1nc(Nc2cnc(N3CCC(N4CCCC4)CC3)nc2)nn1-c1cc2c(nn1)-c1ccccc1CCC2 [Compound 147, 1-(6,7-dihydro-5H-benzo[6,7]cyclohepta[1,2-c]pyridazin-3-yl)-N^3-(2-(4-pyrrolidin-1-ylpiperidin-1-yl)pyrimidin-5-yl)-1H-1,2,4-triazole-3,5-diamine]
1000 to 10000 nM	Nc1nc(Nc2cnc(N3CCC(CN4CCCCC4)CC3)nc2)nn1-c1cc2c(nn1)-c1ccccc1CCC2 [Compound 148, 1-(6,7-dihydro-5H-benzo[6,7]cyclohepta[1,2-c]pyridazin-3-yl)-N^3-(2-(4-(piperidin-1-ylmethyl)piperidin-1-yl)pyrimidin-5-yl)-1H-1,2,4-triazole-3,5-diamine]
1000 to 10000 nM	Nc1nc(Nc2ccc(C(=O)N3CCC(N4CCCCC4)CC3)nc2)nn1-c1cc2c(nn1)-c1ccccc1CCC2 [Compound 149, 1-(6,7-dihydro-5H-benzo[6,7]cyclohepta[1,2-c]pyridazin-3-yl)-N^3-(6-((4-piperidin-1-ylpiperidin-1-yl)carbonyl)pyridin-3-yl)-1H-1,2,4-triazole-3,5-diamine]
< 1000 nM	Nc1nc(Nc2ccc3c(c2)CCC(N2CCCCC2)CC3)nn1-c1cc2c(nn1)-c1ccccc1CCC2 (stereo not shown) [Compound 150, 1-(6,7-dihydro-5H-benzo[6,7]cyclohepta[1,2-c]pyridazin-3-yl)-N^3-((7-piperidin-1-yl)-6,7,8,9-tetrahydro-5H-benzo[7]annulene-2-yl)-1H-1,2,4-triazole-3,5-diamine]

SMILES	IC50
CN1CC2CN(C3CCN(c4ccc(Nc5nc(N)n(-c6cc7c(nn6)-c6ccccc6CCC7)n5)cc4F)CC3)CC2C1 (stereo not shown) [Compound 134, 1-(6,7-dihydro-5H-benzo[6,7]cyclohepta[1,2-c]pyridazin-3-yl)-N^3-(3-fluoro-4-(4-(5-methyloctahydropyrrolo[3,4-c]pyrrolyl)piperidin-1-yl)phenyl)-1H-1,2,4-triazole-3,5-diamine]	< 1000 nM
Nc1nc(Nc2ccc(CCCN3CCCCC3)nc2)nn1-c1cc2c(nn1)-c1ccccc1CCC2 [Compound 142, 1-(6,7-dihydro-5H-benzo[6,7]cyclohepta[1,2-c]pyridazin-3-yl)-N^3-(6-(3-piperidin-1-yl)-propanylpyridin-3-yl)-1H-1,2,4-triazole-3,5-diamine]	< 1000 nM
